Reference: PubChem BioAssay AID1963960 (Molecular Pharmacology Branch, DTP, NCI, 2024)

Tested on: MDA-MB-468 spheroids with HUVEC/MSC, viability
Experiment: Anticancer human tumor MDA-MB-468 cell line growth inhibition [PI3K];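 also: spheroids exposed to agents for seven days before readout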;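 as to viability, T/C: 100% = DMSO vehicle control viability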
Settings: for IC50: curve of first compound; for viability, T/C: stronger effect = lower value
Procedure, shortened: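 High-throughput combination screen: PI3K inhibitors crossed with targeted small molecules on complex spheroids of tumor cells, HUVEC and MSCs at 37 degrees C, 5% CO2. Top concentration was at or near clinical Cmax (otherwise 10 microM), with half-log decrements.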

Compound: CNC(=O)c1ccc(N2C(=S)N(c3ccc(C#N)c(C(F)(F)F)c3)C(=O)C2(C)C)cc1F + CC(Nc1ncnc2nc[nH]c12)c1cc2cccc(Cl)c2c(=O)n1-c1ccccc1
- IC50 (second compound 0.0316 µM): > 10 µM
- IC50 (second compound 0.1 µM): > 10 µM
- IC50 (second compound 0.316 µM): > 10 µM
- IC50 (second compound 1 µM): > 10 µM
- IC50 (second compound 3.16 µM): 7.73 µM
- IC50 (second compound 10 µM): < 0.0316 µM
- viability, T/C (second compound 0.0316 µM, first compound 0.0316 µM): 78.9%
- viability, T/C (second compound 0.0316 µM, first compound 0.1 µM): 80%
- viability, T/C (second compound 0.0316 µM, first compound 0.316 µM): 77.2%
- viability, T/C (second compound 0.0316 µM, first compound 1 µM): 90.6%
- viability, T/C (second compound 0.0316 µM, first compound 3.16 µM): 89.7%
- viability, T/C (second compound 0.0316 µM, first compound 10 µM): 73.1%
- viability, T/C (second compound 0.1 µM, first compound 0.0316 µM): 88%
- viability, T/C (second compound 0.1 µM, first compound 0.1 µM): 79.8%
- viability, T/C (second compound 0.1 µM, first compound 0.316 µM): 73.4%
- viability, T/C (second compound 0.1 µM, first compound 1 µM): 91.3%
- viability, T/C (second compound 0.1 µM, first compound 3.16 µM): 81.1%
- viability, T/C (second compound 0.1 µM, first compound 10 µM): 63.4%
- viability, T/C (second compound 0.316 µM, first compound 0.0316 µM): 72%
- viability, T/C (second compound 0.316 µM, first compound 0.1 µM): 72.5%
- viability, T/C (second compound 0.316 µM, first compound 0.316 µM): 71.5%
- viability, T/C (second compound 0.316 µM, first compound 1 µM): 77%
- viability, T/C (second compound 0.316 µM, first compound 3.16 µM): 70.7%
- viability, T/C (second compound 0.316 µM, first compound 10 µM): 61.1%
- viability, T/C (second compound 1 µM, first compound 0.0316 µM): 58.2%
- viability, T/C (second compound 1 µM, first compound 0.1 µM): 64.5%
- viability, T/C (second compound 1 µM, first compound 0.316 µM): 67.4%
- viability, T/C (second compound 1 µM, first compound 1 µM): 75%
- viability, T/C (second compound 1 µM, first compound 3.16 µM): 55.5%
- viability, T/C (second compound 1 µM, first compound 10 µM): 56.3%
- viability, T/C (second compound 3.16 µM, first compound 0.0316 µM): 52.6%
- viability, T/C (second compound 3.16 µM, first compound 0.1 µM): 56.3%
- viability, T/C (second compound 3.16 µM, first compound 0.316 µM): 53.4%
- viability, T/C (second compound 3.16 µM, first compound 1 µM): 57.1%
- viability, T/C (second compound 3.16 µM, first compound 3.16 µM): 56.8%
- viability, T/C (second compound 3.16 µM, first compound 10 µM): 42.1%
- viability, T/C (second compound 10 µM, first compound 0.0316 µM): 40.1%
- viability, T/C (second compound 10 µM, first compound 0.1 µM): 35.8%
- viability, T/C (second compound 10 µM, first compound 0.316 µM): 36.1%
- viability, T/C (second compound 10 µM, first compound 1 µM): 38%
- viability, T/C (second compound 10 µM, first compound 3.16 µM): 35.7%
- viability, T/C (second compound 10 µM, first compound 10 µM): 26.9%

Compound: Cn1cnc2c(F)c(Nc3ccc(Br)cc3Cl)c(C(=O)NOCCO)cc21 + CC(Nc1ncnc2nc[nH]c12)c1cc2cccc(Cl)c2c(=O)n1-c1ccccc1
- IC50 (second compound 0.0316 µM): > 3 µM
- IC50 (second compound 0.1 µM): > 3 µM
- IC50 (second compound 0.316 µM): > 3 µM
- IC50 (second compound 1 µM): > 3 µM
- IC50 (second compound 3.16 µM): 1.96 µM
- IC50 (second compound 10 µM): < 0.00949 µM
- viability, T/C (second compound 0.0316 µM, first compound 0.00949 µM): 88.8%
- viability, T/C (second compound 0.0316 µM, first compound 0.03 µM): 90%
- viability, T/C (second compound 0.0316 µM, first compound 0.0949 µM): 82.5%
- viability, T/C (second compound 0.0316 µM, first compound 0.3 µM): 92.8%
- viability, T/C (second compound 0.0316 µM, first compound 0.949 µM): 81.8%
- viability, T/C (second compound 0.0316 µM, first compound 3 µM): 57.5%
- viability, T/C (second compound 0.1 µM, first compound 0.00949 µM): 77%
- viability, T/C (second compound 0.1 µM, first compound 0.03 µM): 86.9%
- viability, T/C (second compound 0.1 µM, first compound 0.0949 µM): 101%
- viability, T/C (second compound 0.1 µM, first compound 0.3 µM): 89.1%
- viability, T/C (second compound 0.1 µM, first compound 0.949 µM): 86.1%
- viability, T/C (second compound 0.1 µM, first compound 3 µM): 58.4%
- viability, T/C (second compound 0.316 µM, first compound 0.00949 µM): 85.2%
- viability, T/C (second compound 0.316 µM, first compound 0.03 µM): 83.8%
- viability, T/C (second compound 0.316 µM, first compound 0.0949 µM): 75.6%
- viability, T/C (second compound 0.316 µM, first compound 0.3 µM): 92.5%
- viability, T/C (second compound 0.316 µM, first compound 0.949 µM): 90.3%
- viability, T/C (second compound 0.316 µM, first compound 3 µM): 60.7%
- viability, T/C (second compound 1 µM, first compound 0.00949 µM): 63.4%
- viability, T/C (second compound 1 µM, first compound 0.03 µM): 66.1%
- viability, T/C (second compound 1 µM, first compound 0.0949 µM): 76%
- viability, T/C (second compound 1 µM, first compound 0.3 µM): 73.9%
- viability, T/C (second compound 1 µM, first compound 0.949 µM): 67.6%
- viability, T/C (second compound 1 µM, first compound 3 µM): 58.8%
- viability, T/C (second compound 3.16 µM, first compound 0.00949 µM): 58.2%
- viability, T/C (second compound 3.16 µM, first compound 0.03 µM): 58.5%
- viability, T/C (second compound 3.16 µM, first compound 0.0949 µM): 55.8%
- viability, T/C (second compound 3.16 µM, first compound 0.3 µM): 54.3%
- viability, T/C (second compound 3.16 µM, first compound 0.949 µM): 66%
- viability, T/C (second compound 3.16 µM, first compound 3 µM): 37.2%
- viability, T/C (second compound 10 µM, first compound 0.00949 µM): 43.3%
- viability, T/C (second compound 10 µM, first compound 0.03 µM): 41.2%
- viability, T/C (second compound 10 µM, first compound 0.0949 µM): 37.6%
- viability, T/C (second compound 10 µM, first compound 0.3 µM): 35.6%
- viability, T/C (second compound 10 µM, first compound 0.949 µM): 29.4%
- viability, T/C (second compound 10 µM, first compound 3 µM): 16.4%
